This note sets out measurements from US11712416B2, “Solid oral pharmaceutical compositions for isoxazoline compounds” (Intervet Inc., priority 2012, dated 2023).

Data set [1] can be described thus: Solubility of the active (fluralaner) in formulation solvents. In kind it is physicochemical. Particulars: organic solvent or mixture.
A short description of data set [2]: Blood plasma pharmacokinetic profile of isoxazoline compounds in two chewable formulations after a single oral administration in dogs (Example 8). Conditions: beagle dogs; for Cmax / Tmax / AUC(0-t): dog, plasma; for AUC(0-t): read-out: AUC(0-168h). The class given is in vivo. The source says: Pharmacokinetic Profile Following Oral Administration of Chewable Formulations of Isoxazoline Compounds
The objective of this study is to compare the blood plasma pharmacokinetic profile of three different isoxazoline compounds in two different chewable formulations after a single oral (PO) administration of in dogs.
The following compounds were formulated according to the invention. Specifically, the isoxazoline compound was first dissolved in a solvent, i.e. 2-pyrrolidone. This drug solution was then adsorbed onto the solid carrier, i.e. microcrystalline cellulose, which was incorporated into a solid oral dosage form as described in the specification with excipients as described in Table 3. Comparative example formulation ID No. 13-009, 13-011 and 13-013 contain the active drug substance incorporated as a solid that was manufactured as described in general in the specification without prior pre-dissolving the active ingredient and adsorption to the solid carrier.
The test compounds were administered orally to four beagle dogs per dose group for a total of twenty-four dogs.
Each animal was administered the tablet or chew by placing it in the back of the oral cavity over the tongue to initiate swallowing.
Plasma was obtained from the collected blood samples and analyzed for concentrations of the test compounds. Individual blood samples (approximately 4.5 mL per sample) were taken via jugular venipuncture into sodium-citrate tubes from all dogs for drug analysis. Blood samples were collected at the following time points: pretreatment (within 2 h prior to dosing) and approximately 1, 2, 4, 6, 8, 24, 48, 72 hours after dosing (15 min). A final blood sample was taken from each dog on Day 7 (2 h after the time of dosing on Day 0).
Pharmacokinetic analysis was performed on the plasma concentration data with the computer program Pharsight WinNonlin Enterprise, Version 4.0.1, or more recent update (Model 200: plasma data, extravascular input).

Where [3] appears, read: single oral dose 10 mg/kg, Alternate Chew (compound dissolved in 2-pyrrolidone).
[4] abbreviates: single oral dose 25 mg/kg, Control Chew (compound not dissolved).

The structures appear in SMILES notation. Converted amounts (≈) assume the structure as drawn. Where two headings read alike, the source gives them in different places.

Take `Cc1cc(C2=NOC(c3cc(Cl)cc(Cl)c3)(C(F)(F)F)C2)ccc1C(=O)NCC(=O)NCC(F)(F)F` (centres unmarked) [Compound A-1443, 4-[5-(3,5-Dichlorophenyl)-5-trifluoromethyl-4,5-dihydroisoxazol-3-yl]-2-methyl-N-[(2,2,2-trifluoro-ethylcarbamoyl)-methyl]-benzamide]: the solubility in data set [1] (2-pyrrolidone (2-pyrol), solvent 2-pyrrolidone, read-out: solubility in 2-pyrrolidone (2-pyrol)) was determined as 775 mg/mL (≈ 1390 mM); in data set [1] (dimethylacetamide (DMAC), solvent DMAC, read-out: solubility in dimethylacetamide (DMAC)), 792 mg/mL (≈ 1420 mM).
Regarding `Cc1cc(C2=NOC(c3cc(Cl)cc(Cl)c3)(C(F)(F)F)C2)ccc1C(=O)NC1CSC1` (centres unmarked) [Compound A], the values for the Cmax/Dose in data set [2] (setting [3]) and in data set [2] (setting [4]) were 1.71 kg·ng/mL/mg and 0.768 kg·ng/mL/mg, respectively. Moreover, the Cmax in data set [2] (setting [3]) was 0.0171 µg/mL; in data set [2] (setting [4]), 0.0192 µg/mL.
For `O=C(CNC(=O)c1ccc(C2=NOC(c3cc(Cl)cc(C(F)(F)F)c3)(C(F)(F)F)C2)c2ccccc12)NCC(F)(F)F` (centres unmarked) [Compound B], in data set [2] (setting [3]), the “AUC(0-168h)/Dose” value stood at 33416 kg·ng·h/mL/mg, the Cmax/Dose was found to be 321 kg·ng/mL/mg, the peak level (Cmax) was 3.21 µg/mL and the Tmax amounted to 15.5 h. Moreover, in data set [2] (setting [3]), the AUC(0-t) amounted to 334 µg·h/mL. Moreover, in data set [2] (setting [4]), the “AUC(0-168h)/Dose” value was found to be 16661 kg·ng·h/mL/mg, the Cmax/Dose stood at 174 kg·ng/mL/mg, the Cmax was found to be 4.34 µg/mL and the Tmax was determined as 5 h. Moreover, the AUC(0-t) in data set [2] (setting [4]) worked out at 417 µg·h/mL.
Take `Cc1cc(C2=NOC(c3cc(Cl)cc(Cl)c3)(C(F)(F)F)C2)sc1C(=O)NCC(=O)NCC(F)(F)F` (centres unmarked) [Compound C]: in data set [2] (setting [3]), the “AUC(0-168h)/Dose” value is 32660 kg·ng·h/mL/mg, the Cmax/Dose is 254 kg·ng/mL/mg, the concentration peaked (Cmax) at 2.54 µg/mL and the time to peak (Tmax) came to 15.5 h. The AUC(0-t) in data set [2] (setting [3]) worked out at 327 µg·h/mL. In data set [2] (setting [4]), the “AUC(0-168h)/Dose” value worked out at 6573 kg·ng·h/mL/mg, the Cmax/Dose is 63.5 kg·ng/mL/mg, the Cmax was 1.59 µg/mL and the Tmax was determined as 27.5 h. The AUC(0-t) in data set [2] (setting [4]) was determined as 164 µg·h/mL.

As usually defined, the solubility is the concentration that dissolves in the medium under given conditions. In general, Cmax refers to the maximum level reached in the sampled fluid or tissue. In general, Tmax refers to the time from dosing to the highest level.
